Measurements reported in publication PMC2829539, “Unchanged triclabendazole kinetics after co-administration with ivermectin and methimazole: failure of its therapeutic activity against triclabendazole-resistant liver flukes” (BMC Veterinary Research, 2010).
Values joined by “and” are separate entries in the source; they are usually repeats but may differ in a detail not shown here. Equal entries are not always repeated.

Assays:
[1] = parameters: method as in Alvarez et al., 2008; details: ref Alvarez et al., 2008, cited from earlier work
[2] = tested on: TCBZ-resistant F. hepatica (Sligo isolate); assay: Clinical efficacy study: fluke counts 15 days after treatment; type: in vivo, Fasciola hepatica
Experimental: (§1) Animals were each orally infected with eighty (80) metacercariae of a TCBZ-resistant F. hepatica isolate, named Sligo. For details of the history of the Sligo isolate, see previous works. Sixteen weeks after infection, animals were randomly distributed into three experimental groups (n = 4 each): Group I, which represented the untreated control group; Group II, in which animals were treated with TCBZ (Fasinex®, Novartis) by the i.r. route at 10 mg/kg dose rate; and Group III, in which animals were simultaneously treated with TCBZ (Fasinex®, Novartis) by the i.r. route (10 mg/kg) and IVM (Ivosint®, Biogénesis) by the s.c. route (0.2 mg/kg, internal face of the thigh). Additionally, animals in Group III were treated by the intramuscular (i.m.) route (Semitendinosus muscle) with MTZ (2.5% aqueous solution) at a dose rate of 1.5 mg/kg. MTZ administration was performed 30 min after TCBZ/IVM treatment. Blood samples (5 ml) were taken by jugular venipunctures into heparinised Vacutainers® tubes (Becton Dickinson, USA) before administration (time 0) and at 1, 3, 6, 9, 12, 18, 24, 30, 36, 48, 72, 96, 120 and 144 h post-treatment. Plasma was separated by centrifugation at 3000 g for 15 min, placed into plastic tubes and frozen at -20°C until analyzed by high performance liquid chromatography (HPLC).
Fifteen days after treatment all animals were stunned and exsanguinated immediately. Adult F. hepatica specimens were recovered from the common bile ducts and the gall bladder of each sheep and counted according to the World Association for the Advancement of Veterinary Parasitology (W.A.A.V.P) guidelines. The efficacy of each anthelmintic treatment was determined by the comparison of F. hepatica burdens in treated versus untreated animals. The following equation expresses the percent efficacy (% E) of a drug treatment against F. hepatica (F.h.) in a single treatment group (T) when compared with an untreated control (C). [drawing 1]
The geometric mean was used as it most accurately represents the distribution of parasite populations within each group.

[3] = Plasma disposition kinetics of TCBZ metabolites in F. hepatica-infected sheep (HPLC, non-compartmental analysis); type: in vivo; details: for AUC0-∞ / AUC0-t / Cmax / MRT (mean residence time) / T1/2el (elimination half-life) / T1/2for (formation half life) / Tmax: in vivo, 10 mg/kg; for Time metabolites were recovered in plasma post-treatment: sheep plasma, both treated groups, last sampling time 144 h; for AUC0-t / Cmax / MRT (mean residence time) / T1/2el (elimination half-life) / T1/2for (formation half life) / Tmax: sheep
Experimental: as §1
TCBZ and its metabolites were extracted from plasma as previously described. Samples (1 ml) were spiked with 10 μl of oxibendazole (OBZ) (100 μg/ml), used as internal standard. After addition of 2 ml of acetonitrile, samples were shaken for 20 min (multivortex) and then centrifuged at 2500 g for 15 min. The supernatants were recovered and evaporated to dryness in a vacuum concentrator (Speed-Vac®, Savant, Los Angeles, USA). The dry extracts were reconstituted in 300 μl of mobile phase and an aliquot of 50 μl was injected into the HPLC system.
Experimental and fortified plasma samples were analysed by HPLC to determine the concentration of TCBZ and its metabolites following the methodology previously described. The elution from the stationary phase (Selectosil C18 column, 5 μm, 250 × 4.6 mm, Phenomenex®, CA, USA) was carried out at a flow rate of 1.2 ml/min, using a mixture of acetonitrile/ammonium acetate (0.025 M, pH 6.6) as mobile phase. Fifty μl of each previously extracted sample were injected into a Shimadzu 10 A HPLC System (Kyoto, Japan), using a gradient pump, UV detector set at 300 nm, an autosampler and a controller (Shimadzu Class LC10, Kyoto, Japan). Analytes were identified by the retention times of pure reference standards. Chromatographic retention times were: 4.09 (OBZ), 5.91 (TCBZ.SO), 7.95 (TCBZ.SO2) and 10.36 (TCBZ) min. […] The absolute recovery of drug analytes from plasma was calculated by comparison of the peak areas from spiked plasma samples with the peak areas resulting from direct injections of standards in mobile phase. Mean absolute recoveries and coefficient of variations (CV) within the concentration range between 0.1 and 25 μg/ml (triplicate determinations) were 89.2% (CV: 6.74%) (TCBZ), 87.1% (CV: 6.03%) (TCBZ.SO) and 90.1% (CV: 4.75%) (TCBZ.SO2). Precision (intra- and inter-assay) was determined by analysing replicates of fortified plasma samples (n = 5) with each compound at three different concentrations (0.1, 5 and 10 μg/ml). CV ranged from 2.54 to 14.6%. The limit of quantification (LOQ) was defined as the lowest measured concentration with a CV <20% and accuracy of ±20% and an absolute recovery ≥70%. The LOQ defined for the three molecules assayed was 0.1 μg/ml. Values below LOQ were not included in the pharmacokinetic analysis.
The concentration versus time curves for TCBZ metabolites in plasma for individual animals were fitted with the PKSolutions™ computer program/programme (Summit Research Service, Ashland, USA). Pharmacokinetic analysis of the experimental data was performed by non-compartmental analysis. […]

| SMILES | Initial plasma concentration ([1]; after i.v. administration) [ng/mL] | Peak plasma concentration ([1]; after s.c. administration at the same dose rate) [ng/mL] | Individual fluke counts ([2]; sheep infected with 80 metacercariae, treated 16 weeks after infection, counted 15 days post-treatment, one value per animal (n = 4)) | Arithmetic mean fluke count ([2]; sheep, 15 days post-treatment, n = 4, untreated control 13.25) | Clinical efficacy ([2]; sheep, 15 days post-treatment, versus untreated control, calculated using geometric means) [%] | AUC0-∞ [3] [µg·h/mL] | Time metabolites were recovered in plasma post-treatment [3] | AUC0-t [3] [µg·h/mL] | Cmax [3] [ng/mL] | MRT (mean residence time) [3] [h] | T1/2el (elimination half-life) [3] [h] | T1/2for (formation half life) [3] [h] | Tmax [3] [h] | Share of the total analytes found in sheep plasma ([3]; after i.r. administration of TCBZ) [%] |
| --- | --- | --- | --- | --- | --- | --- | --- | --- | --- | --- | --- | --- | --- | --- |
| CC[C@H](C)[C@H]1O[C@]2(CC[C@@H]1C)C[C@@H]1C[C@@H](C/C=C(\C)[C@@H](O[C@H]3C[C@H](OC)[C@@H](O[C@H]4C[C@H](OC)[C@@H](O)[C@H](C)O4)[C@H](C)O3)[C@@H](C)/C=C/C=C3\CO[C@@H]4[C@H](O)C(C)=C[C@@H](C(=O)O1)[C@]34O)O2 [IVM, ivermectin] | 281.2 ± 32.6 | 21.3 ± 13.3 | – | – | – | – | – | – | – | – | – | – | – | – |
| CSc1nc2cc(Cl)c(Oc3cccc(Cl)c3Cl)cc2[nH]1 [TCBZ alone, 6-chloro-5(2-3 dichlorophenoxy)-2-methyl thio-benzimidazole] | – | – | 2 and 12 and 8 and 5 | 6.75 | 56 | – | – | – | – | – | – | – | – | – |
| CS(=O)(=O)c1nc2cc(Oc3cccc(Cl)c3Cl)c(Cl)cc2[nH]1 [TCBZ.SO2, triclabendazole sulphone] | – | – | – | – | – | 917.9 ± 270.6 | up to 144 h | 868.2 ± 217.6 | 13500 ± 1680 | 61.3 ± 17.2 | 26.8 ± 10.9 | 12.3 ± 2.90 | 39.0 ± 6.00 | – |
| C[S+]([O-])c1nc2cc(Oc3cccc(Cl)c3Cl)c(Cl)cc2[nH]1 (stereo not shown) [TCBZ.SO, triclabendazole sulphoxide] | – | – | – | – | – | 661.5 ± 148.5 | up to 144 h | 653.9 ± 140.6 | 14000 ± 850 | 38.8 ± 10.5 | 17.5 ± 8.45 | 6.85 ± 2.18 | 22.5 ± 7.55 | 42 |
